# Where “and” joins values, the source holds several entries; their conditions need not be identical. Identical values can stand only once. Like-named read-outs stand apart in the source and are kept apart here.
# Experiments:
# VEGF-165 [1] = target: T1, VEGF-165 (Homo sapiens, UniProt P15692); assay: Surface plasmon resonance binding of polyphenols to immobilised VEGF165; conditions: for koff: read-out: dissociation rate constant kd; for dissociation rate at 20 °C compared with 37 °C: 20 °C vs 37 °C, Figure 3B;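 on all read-outs here: running buffer PBST with 1% DMSO, sensorgrams double referenced against a VEGF-free reference cell and blank injections, kinetics fitted to a 1:1 Langmuir binding model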
# T1 construct: purchased ReliaTech GmbH (Wolfenbüttel, Germany)
# T1 sequence (P15692 27-191 isoform P15692-4 limits assumed): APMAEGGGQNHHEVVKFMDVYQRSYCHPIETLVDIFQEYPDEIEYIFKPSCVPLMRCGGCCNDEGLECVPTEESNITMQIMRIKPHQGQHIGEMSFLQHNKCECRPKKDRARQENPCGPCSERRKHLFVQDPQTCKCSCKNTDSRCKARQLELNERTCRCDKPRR
# [2] = tested on: VEGF-dependent VEGFR2 activation in HUVEC cells; parameters: method as in Cerezo et al. [1]; conditions: ref Cerezo et al. [1], read-out: IC50 (concentration causing 50% inhibition of VEGF activation in HUVEC cells), cited from earlier work
# VEGF-165 [3] = target: T1, VEGF-165; assay: Far-UV circular dichroism of VEGF secondary structure upon binding EGCG
# Experimental: Circular dichroism (CD) in the far UV range (180–260 nm) was used to determine whether the secondary structure of VEGF changed upon binding EGCG. Circular dichroism spectra were measured for a fixed concentration of VEGF-165 (0.22 nmoles in 50 µL) with increasing amounts of EGCG (0, 1.36, 5.45 and 10.91 nmoles) and the spectra obtained are shown in Figure 4. Analysis of the spectra indicated the predominant features in the secondary structure of VEGF165 were random coil (unordered) and β-sheet, followed by smaller percentages of α-helix and turns. After adding EGCG at a mole ratio of 1:50 VEGF:EGCG, the VEGF secondary structure was altered with increases of 65% and 33% in α-helix and turns respectively, a reduction in the percentage of β-strands of 88%, and only a 3% reduction in the predominant unordered structure.
# Circular Dichroism (CD) spectra were recorded using a Jasco J-715 spectropolarimeter (Easton, MD, USA) over a wavelength range of 185–260 nm in PBS solvent with 1% ethanol, using a quartz demountable CD cell with a path length of 0.1 mm. Averages of three runs of the protein spectra were collected a 37 °C at a scan speed of 20 nm/min and a band width of 1.0 nm. To account for any background effect the protein in buffer alone, the EGCG molecule in buffer alone, and the buffer alone were also measured. After background correction the spectra were converted to units of delta epsilon. Dichroweb analysis server http://dichroweb.cryst.bbk.ac.uk was used to analyse and estimate on line the secondary structure contents.
# VEGF = target: T2, VEGF (Homo sapiens, UniProt P15692); assay: SDS-page gels of VEGF treated with polyphenol, reducing and non-reducing conditions
# T2 construct: purchased ReliaTech GmbH (Wolfenbüttel, Germany)
# T2 sequence (P15692 27-191 isoform P15692-4 limits assumed): T1 sequence (P15692 27-191 isoform P15692-4 limits assumed)
# Description: Binding occurs when intermolecular forces are established between VEGF and the phenolic ligand. […] Therefore, the interactions between VEGF and inhibitor polyphenols are likely to be non-covalent in nature. These forces could be the result of various interactions between the protein, the ligand, and the environment and are likely to be predominantly based on electrostatic (H bonding) and hydrophobic forces.
# Figure 2 SDS-page gels of control (VEGF) and treatments (VEGF and apple procyanidin fraction dp4 or EGCG under (A) reducing conditions and (B) Non-reducing conditions.
# [4] = PBST, 37 °C, read-out: association rate constant ka
# [5] = PBST, 37 °C, read-out: equilibrium constant KD
# [6] = PBST, 37 °C (control runs of Table 2)
compound,measurement,setting,value
Oc1cc(O)c2c(c1)O[C@H](c1ccc(O)c(O)c1)[C@H](O)C2 [(-) Epicatechin],kon,VEGF-165 [1]; [4],323 M⁻¹ s⁻¹
same,koff,"VEGF-165 [1]; PBST, 37 °C",0.000696 s⁻¹
same,Kd,VEGF-165 [1]; [5],2710 nM
Oc1cc(O)c2c(c1)OC(c1ccc(O)c(O)c1)C(O)C2c1c(O)cc(O)c2c1OC(c1ccc(O)c(O)c1)C(O)C2c1c(O)cc(O)c2c1OC(c1ccc(O)c(O)c1)C(O)C2 (stereo not shown) [Procyanidin Dp3],IC50,[2],780 nM
same,dissociation rate at 20 °C compared with 37 °C,VEGF-165 [1],higher at 20 °C than at 37 °C
same,kon,VEGF-165 [1]; [4],2910 M⁻¹ s⁻¹
same,koff,"VEGF-165 [1]; PBST, 37 °C",0.00093 s⁻¹
same,Kd,VEGF-165 [1]; [5],351 nM
Oc1cc(O)c2c(c1)OC(c1ccc(O)c(O)c1)C(O)C2c1c(O)cc(O)c2c1OC(c1ccc(O)c(O)c1)C(O)C2 (stereo not shown) [Procyanidin Dp2],IC50,[2],52600 nM
same,kon,VEGF-165 [1]; [4],548 M⁻¹ s⁻¹
same,koff,"VEGF-165 [1]; PBST, 37 °C",0.001 s⁻¹
same,Kd,VEGF-165 [1]; [5],637 nM
O=c1c(O)c(-c2cc(O)c(O)c(O)c2)oc2cc(O)cc(O)c12 [Myricetin],IC50,[2]; listed as myricetin,121 nM
same,IC50,[2],120 nM
same,Kd,VEGF-165 [1]; [5],4460 nM
O=c1c(O)c(-c2ccc(O)c(O)c2)oc2cc(O)c(O)c(O)c12 [Quercetagetin],IC50,[2],100 nM
same,kon,VEGF-165 [1]; [4],858 M⁻¹ s⁻¹
same,koff,"VEGF-165 [1]; PBST, 37 °C",0.000826 s⁻¹
same,Kd,VEGF-165 [1]; [5],934 nM
"O=C(O[C@@H]1Cc2c(O)cc(O)cc2O[C@@H]1c1cc(O)c(O)c(O)c1)c1cc(O)c(O)c(O)c1 [Epigallocatechin gallate (EGCG), Epigallocatechin gallate]",position of the negative band in CD far UV spectra,"VEGF-165 [3]; EGCG mixed with VEGF, 201 nm for VEGF alone",211 nm
same,time taken by conformational changes in VEGF,VEGF-165 [3]; after mixing with EGCG,less than 90 s
same,increase in turns of VEGF secondary structure,VEGF-165 [3]; mole ratio 1:50 VEGF:EGCG,33%
same,increase in α-helix of VEGF secondary structure,VEGF-165 [3]; mole ratio 1:50 VEGF:EGCG,65%
same,reduction in the percentage of β-strands of VEGF,VEGF-165 [3]; mole ratio 1:50 VEGF:EGCG,88%
same,reduction in the predominant unordered structure of VEGF,VEGF-165 [3]; mole ratio 1:50 VEGF:EGCG,3%
same,IC50,[2]; listed as EGCG,88 nM
same,IC50,[2],90 nM
same,dissociation rate at 20 °C compared with 37 °C,VEGF-165 [1],higher at 20 °C than at 37 °C
same,kd,"VEGF-165 [1]; PBST + 0.5 M NaCl, 37 °C",0.00037 ± 4e-05 s⁻¹
same,Kd,"VEGF-165 [1]; PBST + 0.5 M NaCl, 37 °C, read-out: KD",60 nM
same,kon,"VEGF-165 [1]; PBST + 0.5 M NaCl, 37 °C, read-out: ka",5180 ± 92 M⁻¹ s⁻¹
same,kd,"VEGF-165 [1]; PBST + 1 M NaCl, 37 °C",0.00033 ± 4e-05 s⁻¹
same,Kd,"VEGF-165 [1]; PBST + 1 M NaCl, 37 °C, read-out: KD",35 nM
same,kon,"VEGF-165 [1]; PBST + 1 M NaCl, 37 °C, read-out: ka",6500 ± 260 M⁻¹ s⁻¹
same,kd,"VEGF-165 [1]; PBST + 1 M urea, 37 °C",0.00036 ± 2.1e-05 s⁻¹
same,Kd,"VEGF-165 [1]; PBST + 1 M urea, 37 °C, read-out: KD",71 nM
same,kon,"VEGF-165 [1]; PBST + 1 M urea, 37 °C, read-out: ka",5160 ± 100 M⁻¹ s⁻¹
same,kd,"VEGF-165 [1]; PBST + 10% ethanol, 37 °C",0.0017 ± 7e-05 s⁻¹
same,Kd,"VEGF-165 [1]; PBST + 10% ethanol, 37 °C, read-out: KD",810 nM
same,kon,"VEGF-165 [1]; PBST + 10% ethanol, 37 °C, read-out: ka",2460 ± 60 M⁻¹ s⁻¹
same,kd,"VEGF-165 [1]; PBST + 10 M ethylene glycol, 37 °C",0.00026 ± 5.2e-05 s⁻¹
same,Kd,"VEGF-165 [1]; PBST + 10 M ethylene glycol, 37 °C, read-out: KD",420 nM
same,kon,"VEGF-165 [1]; PBST + 10 M ethylene glycol, 37 °C, read-out: ka",796 ± 45 M⁻¹ s⁻¹
same,kd,"VEGF-165 [1]; PBST + 30% ethanol, 37 °C",0.0002 ± 5e-05 s⁻¹
same,Kd,"VEGF-165 [1]; PBST + 30% ethanol, 37 °C, read-out: KD",470 nM
same,kon,"VEGF-165 [1]; PBST + 30% ethanol, 37 °C, read-out: ka",482 ± 21 M⁻¹ s⁻¹
same,ka,VEGF-165 [1]; [6],5184 ± 64 M⁻¹ s⁻¹ and 6052 ± 64 M⁻¹ s⁻¹
same,kd,VEGF-165 [1]; [6],0.00068 ± 2.9e-06 s⁻¹ and 0.00088 ± 5.2e-05 s⁻¹ and 0.00072 ± 5e-05 s⁻¹
same,Kd,"VEGF-165 [1]; PBST, 37 °C (control runs of Table 2), read-out: KD",110 nM and 170 nM and 140 nM
same,kon,"VEGF-165 [1]; PBST, 37 °C (control runs of Table 2), read-out: ka",6147 ± 52 M⁻¹ s⁻¹
same,kon,VEGF-165 [1]; [4],6300 M⁻¹ s⁻¹
same,koff,"VEGF-165 [1]; PBST, 37 °C",0.000625 s⁻¹
same,Kd,VEGF-165 [1]; [5],112 nM
same,change in migration of treated VEGF on SDS page gels,VEGF,no change in migration
"O=C(O[C@@H]1Cc2c(O)cc(O)cc2O[C@@H]1c1ccc(O)c(O)c1)c1cc(O)c(O)c(O)c1 [Epicatechin gallate (ECG), Epicatechin gallate]",IC50,[2],160 nM
same,kon,VEGF-165 [1]; [4],8240 M⁻¹ s⁻¹
same,koff,"VEGF-165 [1]; PBST, 37 °C",0.000633 s⁻¹
same,Kd,VEGF-165 [1]; [5],35 nM and 34.8 nM
O=C(O)c1cc(O)c(O)c(O)c1 [Gallic acid],kon,VEGF-165 [1]; [4],166 M⁻¹ s⁻¹
same,koff,"VEGF-165 [1]; PBST, 37 °C",0.000391 s⁻¹
same,Kd,VEGF-165 [1]; [5],5520 nM
Oc1cc(O)c2c(c1)O[C@H](c1ccc(O)c(O)c1)[C@@H](O)C2 [(+) Catechin],IC50,[2],215000 nM
same,kon,VEGF-165 [1]; [4],131 M⁻¹ s⁻¹
same,koff,"VEGF-165 [1]; PBST, 37 °C",0.00399 s⁻¹
same,Kd,VEGF-165 [1]; [5],25000 nM and 24600 nM
Oc1cc(O)c2c(c1)OC(c1ccc(O)c(O)c1)C(O)C2c1c(O)cc(O)c2c1OC(c1ccc(O)c(O)c1)C(O)C2c1c(O)cc(O)c2c1OC(c1ccc(O)c(O)c1)C(O)C2c1c(O)cc(O)c2c1OC(c1ccc(O)c(O)c1)C(O)C2c1c(O)cc(O)c2c1OC(c1ccc(O)c(O)c1)C(O)C2c1c(O)cc(O)c2c1OC(c1ccc(O)c(O)c1)C(O)C2c1c(O)cc(O)c2c1OC(c1ccc(O)c(O)c1)C(O)C2c1c(O)cc(O)c2c1OC(c1ccc(O)c(O)c1)C(O)C2c1c(O)cc(O)c2c1OC(c1ccc(O)c(O)c1)C(O)C2 (stereo not shown) [Procyanidin Dp9],dissociation rate at 20 °C compared with 37 °C,VEGF-165 [1],higher at 20 °C than at 37 °C
same,Kd,VEGF-165 [1]; [5],341 nM

# Reference: PMC6695681, “Hydrophobic Interactions Drive Binding between Vascular Endothelial Growth Factor-A (VEGFA) and Polyphenolic Inhibitors” (Molecules, 2019)
